For four compounds, IC50 results are on record in patent US5652363A, “Pyrido-1,4-oxazinylalkyl-benzamide derivatives” (C.D. Searle & Co., priority 1996, dated 1997).

Each structure is given as a SMILES string.

T1 sequence (P25105 whole entry): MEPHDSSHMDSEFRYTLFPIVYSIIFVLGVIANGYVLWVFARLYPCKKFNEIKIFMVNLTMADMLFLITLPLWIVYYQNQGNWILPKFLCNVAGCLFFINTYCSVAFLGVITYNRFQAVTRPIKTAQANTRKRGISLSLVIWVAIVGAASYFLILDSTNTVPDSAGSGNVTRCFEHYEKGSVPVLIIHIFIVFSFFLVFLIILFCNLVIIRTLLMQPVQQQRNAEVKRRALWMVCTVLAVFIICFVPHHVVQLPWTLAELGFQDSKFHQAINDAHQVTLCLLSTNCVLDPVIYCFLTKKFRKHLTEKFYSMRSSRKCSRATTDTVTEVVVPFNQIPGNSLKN

The assay concerns the target T1, PAF receptor (Homo sapiens, UniProt P25105).
T1 construct: tissue Lifesource, Inc. (Glenview, Ill.); host or cells: human platelets (membrane preparation)
Description: Human Platelet Receptor Binding Assay ([3H]PAF binding to human platelet membrane preparation). The conditions noted are these: inhibition of specific binding of 0.75 nM [3H]PAF to human platelet membranes, 30 minutes at 24° C.; read-out: PAF Inhibitor Activity Human Platelet Receptor Assay. How it is done: Human Platelet Receptor Binding Assay
Compounds of the invention were evaluated for their ability to inhibit specific binding of [^3 H]PAF to human platelet membrane preparation. Human packed platelets were obtained from Lifesource, Inc. (Glenview, Ill.) and washed 3 times with 10 mM Trizma pH 7.0, 2 mM EDTA (dipotassium salt), 150 mM KCl and then once with 10 mM Trizma 7.4, 20 mM CaCl2. The platelets were broken by freezing in a dry ice-ethanol bath, followed by thawing in 24° C. water baths. The preparation was centrifuged (40,000×g, 20 minutes, 4° C.) and the pellet suspended in 10 mM Trizma 7.4, 20 mM CaCl2, 5 mg/ml human albumin. Protein concentration in the platelet membrane preparation was determined by the Lowry method [O. H. Lowry et al., J. Biol. Chem., 193, 265-275 (1951)]. Aliquots of the membrane preparation were stored at -70° C. Each preparation was characterized for PAF receptor number and dissociation constant (Kd). In binding assays 5 μl of test compound, solubilized in DMSO, was added to polypropylene tubes along with 0.75 nM [^3 H]PAF and 200 mcl [0.075 nM] of membranes and 95 μl 10 mM Trizma 7.4, 20 mM CaCl2, 5 mg/ml human albumin-Tubes were incubated for 30 minutes at 24° C. The incubation was terminated by adding 4 ml of ice-cold 10 mM Trizma pH 7.4, 20 mM CaCl2 and 20 mg/ml BSA prior to vacuum filtration using Whatman GF/C filters. Filters were prepared and counted in a scintillation counter. All DPM values (disintergrations per minute) were corrected for background and isotope decay. Triplicate determinations for single doses were averaged. The amount of non-specific binding was subtracted from all dose averages, giving an amount of specific binding in all cases. The IC50 values for the compounds of the invention were determined by the Allfit program using percent displacement data. (Allfit is a `basic` computer program for simultaneous curve fitting of a family of signoidal dose-response curves using the four parameter logistic equation.) Results are shown in Table I. In Table 1 "c-pent" means cyclopentyl; "c-hex" means cyclohexyl; "i-Pr" means isopropyl; "Me" means methyl; and "OMe" means methoxy.
Regarding `CC(C)N(C(=O)c1ccc(CN2CCOc3cnccc32)c(Br)c1)C1CCCCC1` [Example 11, 3-bromo-N-cyclohexyl-4-[(2,3-dihydro-1H-pyrido[3,4-b]-[1,4]oxazin-1-yl)methyl]-N-(1-methylethyl)benzamide], the IC50 was determined as 2 nM.
Consider `Cc1cc(C(=O)N(C2CCCCC2)C2CCCC2)ccc1CN1CCOc2cnccc21` [Example 10, N-cyclohexyl-N-cyclopentyl-4-[(2,3-dihydro-1H-pyrido[3,4-b][1,4]oxazin-1-yl)methyl]-3-methyl-benzamide], for which the IC50 was 219 nM.
Consider `COc1cc(C(=O)N(C(C)C)C2CCCCC2)ccc1CN1C(=O)COc2ncccc21` [Example 17, N-cyclohexyl-4-[{2,3-dihydro-2-oxo-1H-pyrido(2,3-b)(1,4)oxazin-1-yl}methyl]-3-methoxy-N-(1-methylethyl)benzamide], for which the IC50 was 505 nM.
As to `COc1cc(CN2CCOc3cnccc32)ccc1C(=O)N(C1CCCC1)[C@@H]1C[C@H](C)C[C@H](C)C1` [Example 9], the IC50 came out at 163 nM.
